Measured values as given in patent US20190105367A1, “ANTIMICROBIAL 4-OXOQUINOLIZINES” (Emergent Product Development Gaithersburg Inc., priority 2011, published 2019).

Legend:
[1] = test system: strains of A. baumannii and one strain of Acinetobacter sp.; assay: MIC with sub-inhibitory concentrations (0.25x MIC) of polymyxin B, panel of Acinetobacter strains (Example 4); format: cell-based
[2] = test system: A. baumannii ATCC 19606; assay: MIC without and with sub-inhibitory polymyxin B (Example 4); format: cell-based, Acinetobacter baumannii; details: A. baumannii ATCC 19606; for MIC: 2nd experiment
[3] = test system: A. baumannii ATCC 19606; assay: Preliminary MBC without and with sub-inhibitory polymyxin B (Example 4); format: cell-based, Acinetobacter baumannii; details: for MBC: 2nd experiment
[4] = test system: A. baumannii J2; assay: MIC without and with sub-inhibitory polymyxin B (Example 4); format: cell-based, Acinetobacter baumannii; details: A. baumannii J2
[5] = test system: Acinetobacter sp. (H064200250); assay: as above; format: cell-based; details: for MIC: Acinetobacter spp. H064200250 (OXA51), 2nd experiment
[6] = test system: A. baumannii A329; assay: Preliminary MBC without and with sub-inhibitory polymyxin B (Example 4); format: cell-based, Acinetobacter baumannii; details: for MBC: 2nd experiment
[7] = test system: A. baumannii A387; assay: MIC without and with sub-inhibitory polymyxin B (Example 4); format: cell-based, Acinetobacter baumannii; details: A. baumannii A387; for MIC: 2nd experiment
[8] = test system: A. baumannii A387; assay: Preliminary MBC without and with sub-inhibitory polymyxin B (Example 4); format: cell-based, Acinetobacter baumannii; details: for MBC: 2nd experiment
[9] = test system: A. baumannii A390; assay: MIC without and with sub-inhibitory polymyxin B (Example 4); format: cell-based, Acinetobacter baumannii; details: A. baumannii A390; for MIC: 2nd experiment
[10] = test system: A. baumannii A14; assay: Preliminary MBC without and with sub-inhibitory polymyxin B (Example 4); format: cell-based, Acinetobacter baumannii; details: 2nd experiment
Summary of the method: (§1)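 After plating, cultures are held at 37° C for 18-20 hours; the endpoint is then scored by comparing colony growth against the positive control, with MBC defined as the lowest concentration showing roughly 90% reduction.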

[11] = test system: A. baumannii A390; assay: as above; format: cell-based, Acinetobacter baumannii; details: for MBC: 2nd experiment
Summary of the method: as §1

[12] = test system: A. baumannii A473; assay: as above; format: cell-based, Acinetobacter baumannii; details: for MBC: 2nd experiment
Summary of the method: as §1

[13] = test system: A. baumannii NCTC 13301; assay: as above; format: cell-based, Acinetobacter baumannii; details: A. baumannii NCTC 13301, preliminary MBC; for MBC: 2nd experiment
Summary of the method: as §1

[14] = test system: A. baumannii A401; assay: MIC without and with sub-inhibitory polymyxin B (Example 4); format: cell-based, Acinetobacter baumannii; details: A baumannii A 401; for MIC: 2nd experiment
[15] = test system: A. baumannii A401; assay: Preliminary MBC without and with sub-inhibitory polymyxin B (Example 4); format: cell-based, Acinetobacter baumannii; details: for MBC: 2nd experiment
[16] = test system: A. baumannii A472; assay: MIC without and with sub-inhibitory polymyxin B (Example 4); format: cell-based, Acinetobacter baumannii; details: A. baumannii A472; for MIC: 2nd experiment
[17] = test system: A. baumannii A472; assay: Preliminary MBC without and with sub-inhibitory polymyxin B (Example 4); format: cell-based, Acinetobacter baumannii; details: A. baumannii A472, preliminary MBC; for MBC: 2nd experiment
[18] = test system: A. baumannii A473; assay: MIC without and with sub-inhibitory polymyxin B (Example 4); format: cell-based, Acinetobacter baumannii; details: A. baumannii A473; for MIC: 2nd experiment
[19] = test system: A. baumannii A489; assay: as above; format: cell-based, Acinetobacter baumannii; details: A. baumannii A489; for MIC: 2nd experiment
[20] = test system: A. baumannii A489; assay: Preliminary MBC without and with sub-inhibitory polymyxin B (Example 4); format: cell-based, Acinetobacter baumannii; details: A. baumannii A489, preliminary MBC; for MBC: 2nd experiment
[21] = test system: A. baumannii NCTC 13301; assay: MIC without and with sub-inhibitory polymyxin B (Example 4); format: cell-based, Acinetobacter baumannii; details: A. baumannii NCTC 13301; +[…] polymyxin B; 1st experiment
[22] = test system: A. baumannii NCTC 13301; assay: as above; format: cell-based, Acinetobacter baumannii; details: A. baumannii NCTC 13301; +[…] PB; 2nd experiment
[23] = test system: A. baumannii A14; assay: as above; format: cell-based, Acinetobacter baumannii; details: A. baumannii A14, 2nd experiment
[24] = +0.06 μg/ml polymyxin B, 1st experiment
[25] = without polymyxin B, 1st experiment
[26] = +[…] polymyxin B, 1st experiment

For Imipenem/cilastatin, which “MIC range with PB (0.25x MIC) Oct. 1, 2008 n = 8” value ([1]; 1st experiment, […] polymyxin B, ATCC 19606, A329, A390 and A473 not taken) is on record?
Its value is less than 0.125 to 16 µg/mL.

And the “MIC range with PB (0.25x MIC) Oct. 14, 2008 n = 11” value ([1]; 2nd experiment, 0.06 μg/ml polymyxin B, all strains except the ATCC strain)?
The value was no more than 0.125 to 128 µg/mL.

And the MIC ([2]; +0.06 μg/ml PB)?
The MIC was 1 µg/mL.

And the “MIC +0.06 μg/ml PB” value [2, 24]?
Its value is 1 µg/mL.

And the MIC ([2]; without PB)?
Its MIC is 1 µg/mL.

And the “MIC” value ([2]; without PB, value in parentheses marked *, mark not explained)?
The value was 4 µg/mL.

And the “MIC without PB” value [2, 25]?
The value was 2 µg/mL.

And the MBC ([3]; A. baumannii ATCC 19606, +0.06 μg/ml PB)?
The MBC was 1 µg/mL.

What about the “MBC +0.06 μg/ml PB” value ([3]; A. baumannii ATCC 19606, +0.06 μg/ml polymyxin B, 1st experiment) of the same substance?
The value was 2 µg/mL.

What about the MBC ([3]; A. baumannii ATCC 19606, without PB) of the same substance?
Its MBC is 4 µg/mL.

And the “MBC without PB” value ([3]; A. baumannii ATCC 19606, without polymyxin B, 1st experiment)?
Its value is 2 µg/mL.

What about the MIC ([4]; +[…] PB, 2nd experiment) of the same substance?
The MIC was no more than 0.125 µg/mL.

What about the “MIC +[…] PB” value [4, 26] of the same substance?
Its value is no more than 0.125 µg/mL.

And the MIC ([4]; without PB, 2nd experiment)?
The MIC was 8 µg/mL.

What about the “MIC read with alamar blue” value ([4]; without PB, value in parentheses, 2nd experiment) of the same substance?
Its value is 4 µg/mL.

What about the “MIC without PB” value [4, 25] of the same substance?
Its value is 4 µg/mL.

And the MIC ([5]; +[…] PB)?
Its MIC is 0.5 µg/mL.

What about the MIC ([5]; without PB) of the same substance?
The MIC was 8 µg/mL.

And the “MIC +[…] PB” value ([5]; Acinetobacter spp. H064200250, +[…] polymyxin B, 1st experiment)?
The value was 0.5 µg/mL.

And the “MIC without PB” value ([5]; Acinetobacter spp. H064200250, without polymyxin B, 1st experiment)?
The value was 16 µg/mL.

And the MBC ([6]; A. baumannii A329, +0.06 μg/ml PB)?
Its MBC is 128 µg/mL.

What about the MBC ([6]; A. baumannii A329, without PB) of the same substance?
The MBC was greater than 128 µg/mL.

What about the “MBC without PB” value ([6]; A. baumannii A329, without polymyxin B, 1st experiment) of the same substance?
The value was 128 µg/mL.

What about the MIC ([7]; +0.06 μg/ml PB) of the same substance?
The MIC was 8 µg/mL.

And the “MIC +0.06 μg/ml PB” value [7, 24]?
The value was 8 µg/mL.

What about the MIC ([7]; without PB) of the same substance?
Its MIC is 16 µg/mL.

What about the “MIC without PB” value [7, 25] of the same substance?
The value was 16 µg/mL.

What about the MBC ([8]; A. baumannii A387, +0.06 μg/ml PB) of the same substance?
Its MBC is 8 µg/mL.

What about the “MBC +0.06 μg/ml PB” value ([8]; A. baumannii A387, +0.06 μg/ml polymyxin B, 1st experiment) of the same substance?
Its value is 8 µg/mL.

And the MBC ([8]; A. baumannii A387, without PB)?
Its MBC is 16 µg/mL.

What about the “MBC without PB” value ([8]; A. baumannii A387, without polymyxin B, 1st experiment) of the same substance?
Its value is 16 µg/mL.

And the MIC ([9]; +0.06 μg/ml PB)?
The MIC was 4 µg/mL.

And the MIC ([9]; without PB)?
Its MIC is 16 µg/mL.

What about the “MIC without PB” value [9, 25] of the same substance?
Its value is 16 µg/mL.

What about the MBC ([10]; A. baumannii A14, +0.06 μg/ml PB) of the same substance?
Its MBC is 0.5 µg/mL.

What about the MBC ([10]; A. baumannii A14, without PB) of the same substance?
Its MBC is 1 µg/mL.

What about the MBC ([11]; A. baumannii A390, +0.06 μg/ml PB) of the same substance?
The MBC was 4 µg/mL.

And the MBC ([11]; A. baumannii A390, without PB)?
The MBC was 16 µg/mL.

And the “MBC without PB” value ([11]; A. baumannii A390, without polymyxin B, 1st experiment)?
The value was 16 µg/mL.

And the MBC ([12]; A. baumannii A473, +0.06 μg/ml PB)?
Its MBC is 4 µg/mL.

And the MBC ([12]; A. baumannii A473, without PB)?
Its MBC is 32 µg/mL.

And the “MBC without PB” value ([12]; A. baumannii A473, without polymyxin B, 1st experiment)?
Its value is 32 µg/mL.

And the MBC ([13]; +[…] PB)?
The MBC was 0.5 µg/mL.

And the “MBC +[…] PB” value [13, 26]?
The value was 16 µg/mL.

What about the MBC ([13]; without PB) of the same substance?
The MBC was 128 µg/mL.

What about the “MBC without PB” value [13, 25] of the same substance?
Its value is 128 µg/mL.

And the MIC ([14]; +0.06 μg/ml PB)?
Its MIC is 4 µg/mL.

And the “MIC +0.06 μg/ml PB” value [14, 24]?
The value was 8 µg/mL.

What about the MIC ([14]; without PB) of the same substance?
Its MIC is 32 µg/mL.

What about the “MIC without PB” value [14, 25] of the same substance?
Its value is 32 µg/mL.

And the MBC ([15]; A baumannii A 401, +0.06 μg/ml PB)?
Its MBC is 4 µg/mL.

And the “MBC +0.06 μg/ml PB” value ([15]; A baumannii A 401, +0.06 μg/ml polymyxin B, 1st experiment)?
The value was 8 µg/mL.

What about the MBC ([15]; A baumannii A 401, without PB) of the same substance?
Its MBC is 32 µg/mL.

What about the “MBC without PB” value ([15]; A baumannii A 401, without polymyxin B, 1st experiment) of the same substance?
The value was 32 µg/mL.

And the MIC ([16]; +[…] PB)?
The MIC was 0.25 µg/mL.

And the “MIC +[…] PB” value [16, 26]?
The value was 0.25 µg/mL.

What about the MIC ([16]; without PB) of the same substance?
Its MIC is 8 µg/mL.

And the “MIC without PB” value [16, 25]?
Its value is 16 µg/mL.

And the MBC ([17]; +[…] PB)?
The MBC was 0.25 µg/mL.

And the “MBC +[…] PB” value [17, 26]?
The value was 0.25 µg/mL.

And the MBC ([17]; without PB)?
The MBC was 8 µg/mL.

What about the “MBC without PB” value [17, 25] of the same substance?
The value was 16 µg/mL.

What about the MIC ([18]; +0.06 μg/ml PB) of the same substance?
Its MIC is 4 µg/mL.

And the MIC ([18]; without PB)?
The MIC was 32 µg/mL.

And the “MIC without PB” value [18, 25]?
Its value is 32 µg/mL.

And the MIC ([19]; +[…] PB)?
Its MIC is 0.25 µg/mL.

What about the “MIC +[…] PB” value [19, 26] of the same substance?
Its value is 2 µg/mL.

What about the MIC ([19]; without PB) of the same substance?
The MIC was 64 µg/mL.

And the MBC ([20]; +[…] PB)?
The MBC was 0.25 µg/mL.

And the “MBC +[…] PB” value [20, 26]?
The value was 2 µg/mL.

What about the MBC ([20]; without PB) of the same substance?
Its MBC is 64 µg/mL.

And the “MBC without PB” value [20, 25]?
The value was 64 µg/mL.

What about the “MIC +[…] PB” value [21] of the same substance?
The value was 16 µg/mL.

What about the MIC [22] of the same substance?
The MIC was 1 µg/mL.

What about the MIC ([23]; +0.06 μg/ml PB) of the same substance?
The MIC was 1 µg/mL.

What about the MIC ([23]; without PB) of the same substance?
Its MIC is 1 µg/mL.
